# Results reported in patent US11331289B2, “Antimicrobial composition” (priority 2017, dated 2022).
# System: MRSA 16110
# Assay: Time-killing curve, inoculum 5.10^5 CFU/ml (MIC 1 μg/ml)
# Type: cell-based, Staphylococcus aureus
# Experimental: The objective of this study is to assess in vitro the time-killing curves of oxyclozanide against four strains of Methicillin-Resistant Staphylococcus from dogs.
# Two Methicillin-Resistant Staphylococcus aureus (MRSA) and two Methicillin-Resistant Staphylococcus pseudintermedius (MRSP) isolated from the clinics have been tested.
# The assessment of time-killing curves has been realized by a broth macrodilution method (Mueller-Hinton II Broth).
# Oxyclozanide is diluted in (DMSO) into sterile tubes in order to obtain the following concentrations from 800 to 6.25 μg/ml. Those concentrations and stock standard solution are then diluted (1/10) in Mueller-Hinton II Broth in order to obtain the following concentrations from […] (See Table 2).
# Each operation is performed under sterile conditions. Each working standard solution (10*the final active ingredient concentration) is distributed in tubes (1 ml, for a final volume of 10 ml after addition of 9 ml of inoculum). One tube without active ingredient is used as growth control (Concentration=0).
# Bacterial isolates are sub-cultured from one cryobead on Columbia agar supplemented with 5% of blood. Pure cultures are incubated during 18-24 hours at 37° C. Three to five isolated colonies of similar appearance are selected from a previous culture and transferred into tubes containing 9 ml of Mueller-Hinton II Broth. The broth is incubated during 12-18 hours at 37° C. 0.5 to 1 ml of this broth is inoculated to another Mueller-Hinton II Broth 9 ml tube which is incubated during 3 to 4 hours at 37° C. to reach the exponential growth phase. The bacterial inoculum grown exponential phase is suspended to an optical density of McFarland standard scale 0.5 equivalent to a bacterial density of 10^8 CFU/ml and then adjusted to a concentration of about 5.10^5 CFU/ml as indicated by the guideline CLSI M26-A and to a second inoculum tested: 10^6 CFU/ml.
# 9 ml of bacterial inoculum grown to exponential phase is added to 1 ml of active ingredient (or Mueller Hinton II Broth for the growth control). Tubes are incubated at 35° C. during 24 hours.
# At times 0, 2, 4, 6 and 24 hours, 100 μl of broth of each tube is sampled and diluted in microplates:
# Each well is re-cultured by streaking 10 μl on Columbia agar supplemented with 5% of blood. Plates are incubated at 37° C. during 18-24 hours incubation. Thus, residual bacterial concentrations are determined (CFU/ml). Results are expressed in log10 values of CFU/ml over-time in broth. Due to the procedure used, the minimal bacterial concentration that can be assessed is 10^2 CFU/ml.
smiles,measurement,setting,value
O=C(Nc1cc(Cl)cc(Cl)c1O)c1c(O)c(Cl)cc(Cl)c1Cl [Oxyclozanide],Counting results,"1 MIC, 0 h",4.100E+05 CFU/ml
same,Counting results,"1 MIC, 2 h",9.300E+04 CFU/ml
same,Counting results,"1 MIC, 4 h",6.500E+04 CFU/ml
same,Counting results,"1 MIC, 6 h",1.100E+05 CFU/ml
same,Counting results,"1 MIC, 24 h",6.100E+05 CFU/ml
same,Counting results,"2 MIC, 0 h",4.100E+05 CFU/ml
same,Counting results,"2 MIC, 2 h",3.300E+03 CFU/ml
same,Counting results,"2 MIC, 4 h",1.800E+03 CFU/ml
same,Counting results,"2 MIC, 6 h",4.000E+02 CFU/ml
same,Counting results,"2 MIC, 24 h",1.000E+02 CFU/ml
same,Counting results,"4 MIC, 0 h",4.100E+05 CFU/ml
same,Counting results,"4 MIC, 2 h",3.000E+02 CFU/ml
same,Counting results,"4 MIC, 4 h",1.000E+02 CFU/ml
same,Counting results,"4 MIC, 6 h",1.000E+02 CFU/ml
same,Counting results,"4 MIC, 24 h",1.000E+02 CFU/ml
same,Counting results,"8 MIC, 0 h",4.100E+05 CFU/ml
same,Counting results,"8 MIC, 2 h",2.000E+02 CFU/ml
same,Counting results,"8 MIC, 4 h",1.000E+02 CFU/ml
same,Counting results,"8 MIC, 6 h",1.000E+02 CFU/ml
same,Counting results,"8 MIC, 24 h",1.000E+02 CFU/ml
same,Counting results,"16 MIC, 0 h",4.100E+05 CFU/ml
same,Counting results,"16 MIC, 2 h",1.000E+02 CFU/ml
same,Counting results,"16 MIC, 4 h",1.000E+02 CFU/ml
same,Counting results,"16 MIC, 6 h",1.000E+02 CFU/ml
same,Counting results,"16 MIC, 24 h",1.000E+02 CFU/ml
same,Time to obtain bactericidal effect at 4 MIC,"16110/5.10^5 CFU/ml, >=3 log10 decrease in CFU",2 h
same,Counting results,"¼ MIC, 0 h",4.100E+05 CFU/ml
same,Counting results,"¼ MIC, 2 h",1.400E+06 CFU/ml
same,Counting results,"¼ MIC, 4 h",9.500E+07 CFU/ml
same,Counting results,"¼ MIC, 6 h",1.600E+08 CFU/ml
same,Counting results,"¼ MIC, 24 h",1.100E+09 CFU/ml
same,Counting results,"½ MIC, 0 h",4.100E+05 CFU/ml
same,Counting results,"½ MIC, 2 h",6.300E+05 CFU/ml
same,Counting results,"½ MIC, 4 h",9.900E+06 CFU/ml
same,Counting results,"½ MIC, 6 h",3.100E+07 CFU/ml
same,Counting results,"½ MIC, 24 h",1.900E+08 CFU/ml
